{
  "source": "the kinase profiling compilation of Christmann-Franck et al. (2016)",
  "experiment_in_all_cases": "KINOMEscan competition binding",
  "conditions_in_all_cases": "compound 10.0 µM",
  "key": {"[1]": {"system": "ABL1 (human), P00519 [E255K]"}, "[2]": {"biological_target": "CDK13 (human) (UniProt Q14004)"}, "[3]": {"biological_target": "CDK2 (human) (UniProt P24941)"}, "[4]": {"biological_target": "CDK4 CCND3 (human) (UniProt P11802+P30281)"}, "[5]": {"system": "CPK1 (P.falciparum)"}, "[6]": {"biological_target": "CRK2 (P.falciparum) (UniProt P61075)"}, "[7]": {"biological_target": "DYRK1A (human) (UniProt Q13627)"}, "[8]": {"biological_target": "EGFR (human) (UniProt P00533)"}, "[9]": {"system": "EGFR (human), P00533 [746-750 del]"}, "[10]": {"system": "EGFR (human), P00533 [G719S]"}, "[11]": {"system": "EGFR (human), P00533 [L861Q]"}, "[12]": {"system": "EGFR (human), P00533 [P753S; 747-752 del]"}, "[13]": {"biological_target": "GRK1 (human) (UniProt Q15835)", "sequence (Q15835 whole entry, looked up)": "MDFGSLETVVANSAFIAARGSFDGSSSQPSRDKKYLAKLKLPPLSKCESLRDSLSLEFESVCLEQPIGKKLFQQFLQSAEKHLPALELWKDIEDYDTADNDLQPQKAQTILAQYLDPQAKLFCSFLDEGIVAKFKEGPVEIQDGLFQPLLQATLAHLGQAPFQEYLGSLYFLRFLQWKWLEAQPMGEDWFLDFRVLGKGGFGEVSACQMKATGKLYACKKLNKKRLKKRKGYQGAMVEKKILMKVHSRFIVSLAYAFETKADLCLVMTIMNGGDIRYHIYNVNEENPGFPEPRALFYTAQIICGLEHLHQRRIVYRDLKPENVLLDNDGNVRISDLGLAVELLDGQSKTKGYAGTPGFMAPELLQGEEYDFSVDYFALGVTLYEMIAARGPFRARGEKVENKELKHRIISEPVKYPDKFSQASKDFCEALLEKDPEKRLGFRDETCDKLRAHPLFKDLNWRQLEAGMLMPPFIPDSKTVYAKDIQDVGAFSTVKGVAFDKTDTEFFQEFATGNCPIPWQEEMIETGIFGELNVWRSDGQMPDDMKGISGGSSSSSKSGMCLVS"}, "[14]": {"biological_target": "GRK4 (human) (UniProt P32298)"}, "[15]": {"biological_target": "HIPK2 (human) (UniProt Q9H2X6)", "sequence (Q9H2X6 whole entry, looked up)": "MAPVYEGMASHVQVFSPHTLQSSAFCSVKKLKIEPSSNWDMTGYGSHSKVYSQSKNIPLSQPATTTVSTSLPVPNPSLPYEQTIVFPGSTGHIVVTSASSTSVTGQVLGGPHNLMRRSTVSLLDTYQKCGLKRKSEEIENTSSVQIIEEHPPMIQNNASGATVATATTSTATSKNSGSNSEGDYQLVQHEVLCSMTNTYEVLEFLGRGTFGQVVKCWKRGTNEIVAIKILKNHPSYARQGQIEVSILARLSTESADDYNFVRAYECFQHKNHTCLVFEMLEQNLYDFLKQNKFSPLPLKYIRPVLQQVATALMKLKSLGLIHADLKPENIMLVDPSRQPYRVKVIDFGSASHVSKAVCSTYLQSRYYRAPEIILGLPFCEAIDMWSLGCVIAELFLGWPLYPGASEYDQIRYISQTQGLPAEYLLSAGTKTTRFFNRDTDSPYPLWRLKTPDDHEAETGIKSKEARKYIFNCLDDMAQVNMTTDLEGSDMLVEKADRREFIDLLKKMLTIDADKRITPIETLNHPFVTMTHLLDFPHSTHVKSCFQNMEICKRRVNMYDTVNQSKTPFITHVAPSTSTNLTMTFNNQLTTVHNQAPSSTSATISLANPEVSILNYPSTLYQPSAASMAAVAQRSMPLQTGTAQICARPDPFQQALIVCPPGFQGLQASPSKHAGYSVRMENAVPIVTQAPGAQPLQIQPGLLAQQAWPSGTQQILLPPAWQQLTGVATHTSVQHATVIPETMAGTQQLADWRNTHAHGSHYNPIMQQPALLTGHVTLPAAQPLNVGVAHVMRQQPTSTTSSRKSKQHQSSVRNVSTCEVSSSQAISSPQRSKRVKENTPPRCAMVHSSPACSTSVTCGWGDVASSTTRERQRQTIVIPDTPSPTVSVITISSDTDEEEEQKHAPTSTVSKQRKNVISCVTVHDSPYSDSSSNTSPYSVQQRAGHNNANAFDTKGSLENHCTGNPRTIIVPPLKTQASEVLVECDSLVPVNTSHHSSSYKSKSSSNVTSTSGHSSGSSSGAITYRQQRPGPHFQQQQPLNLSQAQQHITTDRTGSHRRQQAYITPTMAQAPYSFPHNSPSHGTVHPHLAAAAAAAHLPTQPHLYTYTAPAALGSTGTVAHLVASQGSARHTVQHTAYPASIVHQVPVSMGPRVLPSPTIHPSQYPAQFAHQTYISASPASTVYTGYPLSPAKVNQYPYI"}, "[16]": {"biological_target": "IRAK4 (human) (UniProt Q9NWZ3)"}, "[17]": {"biological_target": "KIT (human) (UniProt P10721)", "sequence (P10721 whole entry, looked up)": "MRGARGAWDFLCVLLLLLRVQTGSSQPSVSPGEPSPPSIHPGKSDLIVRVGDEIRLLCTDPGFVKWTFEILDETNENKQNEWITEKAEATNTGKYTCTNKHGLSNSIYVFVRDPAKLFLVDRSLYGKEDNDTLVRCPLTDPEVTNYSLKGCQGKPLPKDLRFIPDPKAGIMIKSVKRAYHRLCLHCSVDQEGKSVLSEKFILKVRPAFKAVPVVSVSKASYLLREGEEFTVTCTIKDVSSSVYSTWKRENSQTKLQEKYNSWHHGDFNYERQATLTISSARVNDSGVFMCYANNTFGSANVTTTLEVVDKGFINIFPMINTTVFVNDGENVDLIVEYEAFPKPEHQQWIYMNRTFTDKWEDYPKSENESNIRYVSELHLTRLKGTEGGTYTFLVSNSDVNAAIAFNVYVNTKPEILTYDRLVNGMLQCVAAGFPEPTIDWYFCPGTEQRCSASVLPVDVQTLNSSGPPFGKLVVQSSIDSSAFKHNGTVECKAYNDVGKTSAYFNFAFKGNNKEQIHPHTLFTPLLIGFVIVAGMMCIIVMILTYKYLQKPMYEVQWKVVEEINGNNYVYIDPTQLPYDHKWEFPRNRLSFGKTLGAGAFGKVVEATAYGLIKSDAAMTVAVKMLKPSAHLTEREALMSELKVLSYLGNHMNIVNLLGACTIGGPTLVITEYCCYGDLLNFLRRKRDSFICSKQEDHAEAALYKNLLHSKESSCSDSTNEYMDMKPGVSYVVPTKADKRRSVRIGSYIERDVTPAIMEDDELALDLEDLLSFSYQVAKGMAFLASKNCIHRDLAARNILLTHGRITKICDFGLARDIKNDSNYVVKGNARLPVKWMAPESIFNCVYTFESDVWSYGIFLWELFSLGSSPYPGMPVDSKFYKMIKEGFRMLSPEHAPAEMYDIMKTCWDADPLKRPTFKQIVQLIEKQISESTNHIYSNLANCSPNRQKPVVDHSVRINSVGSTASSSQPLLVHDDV"}, "[18]": {"system": "KIT (human), P10721 [V559D/T670I]", "sequence (P10721 whole entry V559D/T670I, looked up)": "as the sequence (P10721 whole entry, looked up) above, with V559D, T670I counted along it"}, "[19]": {"biological_target": "MAP3K1 (human) (UniProt Q13233)"}, "[20]": {"biological_target": "MAP3K13 (human) (UniProt O43283)"}, "[21]": {"biological_target": "MAP3K15 (human) (UniProt Q6ZN16)"}, "[22]": {"biological_target": "MAP3K2 (human) (UniProt Q9Y2U5)"}, "[23]": {"biological_target": "MET (human) (UniProt P08581)"}, "[24]": {"biological_target": "MYLK3 (human) (UniProt Q32MK0)", "sequence (Q32MK0 whole entry, looked up)": "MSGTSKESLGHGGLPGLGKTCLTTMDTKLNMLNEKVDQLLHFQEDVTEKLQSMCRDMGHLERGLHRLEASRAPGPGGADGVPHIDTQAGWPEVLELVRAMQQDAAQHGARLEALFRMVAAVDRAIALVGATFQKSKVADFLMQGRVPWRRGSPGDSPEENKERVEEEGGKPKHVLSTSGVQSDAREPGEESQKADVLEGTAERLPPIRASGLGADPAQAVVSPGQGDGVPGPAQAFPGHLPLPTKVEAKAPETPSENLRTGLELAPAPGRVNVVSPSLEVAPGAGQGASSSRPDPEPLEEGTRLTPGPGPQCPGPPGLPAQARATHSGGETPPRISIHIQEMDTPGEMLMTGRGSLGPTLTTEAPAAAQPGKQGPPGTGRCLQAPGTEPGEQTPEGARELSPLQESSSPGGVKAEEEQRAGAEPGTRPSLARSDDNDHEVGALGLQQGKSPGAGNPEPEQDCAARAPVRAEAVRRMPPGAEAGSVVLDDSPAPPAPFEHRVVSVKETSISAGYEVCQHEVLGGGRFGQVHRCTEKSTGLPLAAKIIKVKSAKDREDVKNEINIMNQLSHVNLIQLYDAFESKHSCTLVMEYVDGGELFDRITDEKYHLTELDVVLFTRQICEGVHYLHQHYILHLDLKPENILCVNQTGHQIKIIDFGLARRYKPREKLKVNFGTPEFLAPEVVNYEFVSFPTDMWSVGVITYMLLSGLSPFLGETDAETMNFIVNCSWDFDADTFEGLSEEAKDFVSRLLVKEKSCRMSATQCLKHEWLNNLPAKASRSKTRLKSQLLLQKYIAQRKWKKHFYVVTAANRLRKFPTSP"}, "[25]": {"biological_target": "NIM1 (human) (UniProt Q8IY84)", "sequence (Q8IY84 whole entry, looked up)": "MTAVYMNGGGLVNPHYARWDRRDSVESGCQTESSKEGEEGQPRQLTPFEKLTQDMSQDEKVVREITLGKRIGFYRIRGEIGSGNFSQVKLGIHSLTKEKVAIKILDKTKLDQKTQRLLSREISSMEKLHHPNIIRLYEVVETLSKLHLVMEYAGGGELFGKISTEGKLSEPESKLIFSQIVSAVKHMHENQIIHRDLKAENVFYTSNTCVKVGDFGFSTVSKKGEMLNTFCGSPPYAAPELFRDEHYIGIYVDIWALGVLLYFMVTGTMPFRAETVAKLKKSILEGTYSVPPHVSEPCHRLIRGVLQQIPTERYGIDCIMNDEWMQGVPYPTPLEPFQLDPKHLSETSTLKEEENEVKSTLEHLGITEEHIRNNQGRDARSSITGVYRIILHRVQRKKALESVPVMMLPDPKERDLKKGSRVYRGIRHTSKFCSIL"}, "[26]": {"biological_target": "PIK3C2G (human) (UniProt O75747)"}, "[27]": {"system": "PIK3CA (human), P42336 [C420R]"}, "[28]": {"system": "PIK3CA (human), P42336 [H1047Y]"}, "[29]": {"system": "PIK3CA (human), P42336 [I800L]"}, "[30]": {"system": "PIK3CA (human), P42336 [Q546K]"}, "[31]": {"biological_target": "PIK3CG (human) (UniProt P48736)"}, "[32]": {"biological_target": "PLK2 (human) (UniProt Q9NYY3)"}, "[33]": {"biological_target": "PRKCI (human) (UniProt P41743)"}, "[34]": {"biological_target": "SGK3 (human) (UniProt Q96BR1)", "sequence (Q96BR1 whole entry, looked up)": "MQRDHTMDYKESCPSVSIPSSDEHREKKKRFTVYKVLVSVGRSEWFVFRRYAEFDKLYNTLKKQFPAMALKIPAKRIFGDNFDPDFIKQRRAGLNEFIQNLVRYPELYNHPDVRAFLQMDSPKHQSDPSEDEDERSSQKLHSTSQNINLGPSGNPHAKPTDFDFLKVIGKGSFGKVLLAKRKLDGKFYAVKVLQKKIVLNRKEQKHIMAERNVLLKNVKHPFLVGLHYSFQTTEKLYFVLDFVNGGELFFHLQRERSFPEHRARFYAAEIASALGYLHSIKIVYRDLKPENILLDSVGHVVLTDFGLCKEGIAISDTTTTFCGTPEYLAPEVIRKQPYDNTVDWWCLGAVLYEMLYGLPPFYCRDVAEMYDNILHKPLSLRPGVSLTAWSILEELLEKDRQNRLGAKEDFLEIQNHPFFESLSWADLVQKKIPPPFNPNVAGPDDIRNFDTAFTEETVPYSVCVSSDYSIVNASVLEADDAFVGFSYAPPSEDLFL"}, "[35]": {"biological_target": "SIK3 (human) (UniProt Q9Y2K2)"}, "[36]": {"biological_target": "STK39 (human) (UniProt Q9UEW8)"}, "[37]": {"biological_target": "TAOK2 (human) (UniProt Q9UL54)"}, "[38]": {"biological_target": "VRK2 (human) (UniProt Q86Y07)", "sequence (Q86Y07 whole entry, looked up)": "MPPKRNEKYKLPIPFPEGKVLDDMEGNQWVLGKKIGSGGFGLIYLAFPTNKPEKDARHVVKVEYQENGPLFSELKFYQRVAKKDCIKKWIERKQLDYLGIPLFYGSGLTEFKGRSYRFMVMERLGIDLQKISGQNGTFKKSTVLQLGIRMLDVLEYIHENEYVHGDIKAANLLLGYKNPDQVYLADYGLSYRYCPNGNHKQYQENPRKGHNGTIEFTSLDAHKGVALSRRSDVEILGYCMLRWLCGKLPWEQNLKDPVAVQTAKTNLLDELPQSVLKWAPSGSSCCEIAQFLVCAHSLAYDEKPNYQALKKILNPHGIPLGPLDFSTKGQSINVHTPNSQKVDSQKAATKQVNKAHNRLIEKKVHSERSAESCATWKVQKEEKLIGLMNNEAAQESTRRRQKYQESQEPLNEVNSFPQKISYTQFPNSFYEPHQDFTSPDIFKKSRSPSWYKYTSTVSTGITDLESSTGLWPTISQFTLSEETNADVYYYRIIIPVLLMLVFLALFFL"}, "[39]": {"biological_target": "YSK4 (human) (UniProt Q56UN5)"}},
  "data": [
    {"smiles": "CN(C)C/C=C/C(=O)Nc1cccc(Nc2ncc3c(n2)N(C)c2ccccc2C(=O)N3C)c1", "values": [
      {"measurement": "kinase still bound, per cent of control", "setting": "[1]", "value": 0.1, "unit": "%"},
      {"measurement": "kinase still bound, per cent of control", "setting": "[2]", "value": 96, "unit": "%"},
      {"measurement": "kinase still bound, per cent of control", "setting": "[3]", "value": 94, "unit": "%"},
      {"measurement": "kinase still bound, per cent of control", "setting": "[4]", "value": 85, "unit": "%"},
      {"measurement": "kinase still bound, per cent of control", "setting": "[5]", "value": 74, "unit": "%"},
      {"measurement": "kinase still bound, per cent of control", "setting": "[6]", "value": 100, "unit": "%"},
      {"measurement": "kinase still bound, per cent of control", "setting": "[7]", "value": 73, "unit": "%"},
      {"measurement": "kinase still bound, per cent of control", "setting": "[8]", "value": 69, "unit": "%"},
      {"measurement": "kinase still bound, per cent of control", "setting": "[9]", "value": 90, "unit": "%"},
      {"measurement": "kinase still bound, per cent of control", "setting": "[10]", "value": 67, "unit": "%"},
      {"measurement": "kinase still bound, per cent of control", "setting": "[11]", "value": 73, "unit": "%"},
      {"measurement": "kinase still bound, per cent of control", "setting": "[12]", "value": 100, "unit": "%"},
      {"measurement": "kinase still bound, per cent of control", "setting": "[13]", "value": 100, "unit": "%"},
      {"measurement": "kinase still bound, per cent of control", "setting": "[14]", "value": 66, "unit": "%"},
      {"measurement": "kinase still bound, per cent of control", "setting": "[15]", "value": 89, "unit": "%"},
      {"measurement": "kinase still bound, per cent of control", "setting": "[16]", "value": 73, "unit": "%"},
      {"measurement": "kinase still bound, per cent of control", "setting": "[17]", "value": 66, "unit": "%"},
      {"measurement": "kinase still bound, per cent of control", "setting": "[18]", "value": 65, "unit": "%"},
      {"measurement": "kinase still bound, per cent of control", "setting": "[19]", "value": 72, "unit": "%"},
      {"measurement": "kinase still bound, per cent of control", "setting": "[20]", "value": 40, "unit": "%"},
      {"measurement": "kinase still bound, per cent of control", "setting": "[21]", "value": 69, "unit": "%"},
      {"measurement": "kinase still bound, per cent of control", "setting": "[22]", "value": 0.1, "unit": "%"},
      {"measurement": "kinase still bound, per cent of control", "setting": "[23]", "value": 48, "unit": "%"},
      {"measurement": "kinase still bound, per cent of control", "setting": "[24]", "value": 100, "unit": "%"},
      {"measurement": "kinase still bound, per cent of control", "setting": "[25]", "value": 21, "unit": "%"},
      {"measurement": "kinase still bound, per cent of control", "setting": "[26]", "value": 76, "unit": "%"},
      {"measurement": "kinase still bound, per cent of control", "setting": "[27]", "value": 72, "unit": "%"},
      {"measurement": "kinase still bound, per cent of control", "setting": "[28]", "value": 51, "unit": "%"},
      {"measurement": "kinase still bound, per cent of control", "setting": "[29]", "value": 55, "unit": "%"},
      {"measurement": "kinase still bound, per cent of control", "setting": "[30]", "value": 30, "unit": "%"},
      {"measurement": "kinase still bound, per cent of control", "setting": "[31]", "value": 0, "unit": "%"},
      {"measurement": "kinase still bound, per cent of control", "setting": "[32]", "value": 37, "unit": "%"},
      {"measurement": "kinase still bound, per cent of control", "setting": "[33]", "value": 97, "unit": "%"},
      {"measurement": "kinase still bound, per cent of control", "setting": "[34]", "value": 90, "unit": "%"},
      {"measurement": "kinase still bound, per cent of control", "setting": "[35]", "value": 20, "unit": "%"},
      {"measurement": "kinase still bound, per cent of control", "setting": "[36]", "value": 100, "unit": "%"},
      {"measurement": "kinase still bound, per cent of control", "setting": "[37]", "value": 0, "unit": "%"},
      {"measurement": "kinase still bound, per cent of control", "setting": "[38]", "value": 73, "unit": "%"},
      {"measurement": "kinase still bound, per cent of control", "setting": "[39]", "value": 6.2, "unit": "%"}
    ]}
  ]
}
